Measurements: paper PMC10974930, “Synthesis and Antioxidant Activities of Novel Pyrimidine Acrylamides as Inhibitors of Lipoxygenase: Molecular Modeling and In Silico Physicochemical Studies” (Molecules, 2024)

Biological target: T1, soybean lipoxygenase (Glycine max, UniProt P08170)
T1 construct: gene LOX1.1
T1 sequence (P08170 1-839): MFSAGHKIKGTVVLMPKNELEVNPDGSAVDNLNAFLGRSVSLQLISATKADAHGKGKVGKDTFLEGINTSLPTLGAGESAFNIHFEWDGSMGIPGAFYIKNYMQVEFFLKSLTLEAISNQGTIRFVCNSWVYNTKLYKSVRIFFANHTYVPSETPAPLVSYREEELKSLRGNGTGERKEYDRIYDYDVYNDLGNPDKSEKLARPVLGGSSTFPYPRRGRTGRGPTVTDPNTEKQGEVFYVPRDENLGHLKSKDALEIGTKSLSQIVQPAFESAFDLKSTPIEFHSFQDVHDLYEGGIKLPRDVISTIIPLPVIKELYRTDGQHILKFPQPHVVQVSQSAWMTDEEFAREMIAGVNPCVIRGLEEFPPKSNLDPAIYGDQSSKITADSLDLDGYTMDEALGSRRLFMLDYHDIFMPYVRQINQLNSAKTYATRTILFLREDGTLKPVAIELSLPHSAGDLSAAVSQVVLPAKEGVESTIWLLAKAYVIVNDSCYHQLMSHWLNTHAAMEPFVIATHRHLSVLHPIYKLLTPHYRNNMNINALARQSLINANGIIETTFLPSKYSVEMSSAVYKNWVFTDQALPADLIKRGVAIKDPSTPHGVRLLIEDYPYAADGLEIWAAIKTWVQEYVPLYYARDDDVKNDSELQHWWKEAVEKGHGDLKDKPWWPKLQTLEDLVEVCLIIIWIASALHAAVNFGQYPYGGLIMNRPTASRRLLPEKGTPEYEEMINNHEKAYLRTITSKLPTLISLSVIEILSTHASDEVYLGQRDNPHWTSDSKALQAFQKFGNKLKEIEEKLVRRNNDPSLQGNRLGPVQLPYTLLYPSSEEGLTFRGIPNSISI
Test: UV assay at […] nm of sodium linoleate oxidation by soybean lipoxygenase (Sigma)
Assay type: biochemical
Details: read-out: % Inhibition of LOX 100 μM or IC50 (μM) *

IC50 [µM] | SMILES
10.7 | O=Nc1c(NC(=O)/C=C/c2cccs2)[nH]c(N2CCCCC2)nc1=O [compound 5, (E)-N-(5-nitroso-6-oxo-2-(piperidin-1-yl)-3,6-dihydropyrimidin-4-yl)-3-(thiophen-2-yl)acrylamide]
1.1 | O=Nc1c(NC(=O)/C=C/c2cccc3ccccc23)[nH]c(N2CCCCC2)nc1=O [compound 9, (E)-3-(naphthalen-1-yl)-N-(5-nitroso-6-oxo-2-(piperidin-1-yl)-3,6-dihydropyrimidin-4-yl)acrylamide]
